In patent US20090176817A1, “Method of Treatment of Diarrhea-Predominant Irritable Bowel Syndrome in a Subject” (priority 2005, published 2009):

What was measured:
in vitro = in vitro ADME; conditions: human, plasma
Method: Protein binding was also evaluated in an in vitro study in human, mouse, rat, and dog plasma using equilibrium dialysis (12-14K molecular weight cut-off membrane). This study measured the binding of (^14C)-cilansetron in plasma at nominal concentrations (30, 90, and 300 ng/mL) which are much higher than those encountered in vivo in humans. This study also measured the binding of (^14C)-cilansetron to purified human serum albumin at cilansetron concentrations ranging from 30-3000 ng/mL and to purified human alpha-1 acid glycoprotein (AAG) at concentrations ranging from 30-10000 ng/mL.

healthy subjects [1] = assay: Study K.241.5007: rectal visceral perception; format: in vivo, human; conditions: mean; for Pressure first producing abdominal pain, Differences from Placebo / Pressure first producing feeling of abdominal sensation, Differences from Placebo / Pressure first producing feeling of need to defecate, Differences from Placebo / Volume first producing abdominal pain, Differences from Placebo / Volume first producing feeling of abdominal sensation, Differences from Placebo / Volume first producing feeling of need to defecate, Differences from Placebo: not significant; for Pressure first producing abdominal pain / Pressure first producing feeling of abdominal sensation / Pressure first producing feeling of need to defecate / Volume first producing abdominal pain / Volume first producing feeling of abdominal sensation / Volume first producing feeling of need to defecate: rectal distension, absolute value
Method: The effect of cilansetron on rectal visceral perception was evaluated in a randomized, doubleblind, placebo-controlled, 4-way crossover study in 12 male healthy subjects (ITT population), aged 18-26 years. Subjects received single IV doses of placebo or cilansetron 4 mg, 8 mg, or 16 mg as 30-minute infusions during each of the periods, with a 14-day washout between periods. Rectal distension tests were done during each treatment, immediately following the completion of each infusion. An electronic barostat was used to produce isobarometric distensions (successive 4 mmHg increases every 5 minutes, up to a sensation of abdominal pain or a maximum of 44 mmHg). The primary efficacy parameter was the distension pressure required to induce a sensation of abdominal pain. Secondary parameters were the distension pressure at the first feeling of abdominal/rectal sensation and the first feeling of need to defecate, and the response rate (defined as the number of subjects who experienced no abdominal pain at the maximum pressure of 44 mmHg). The pain threshold for each of the three cilansetron doses was compared to placebo using a one-sided Dunnett t-test.

healthy subjects [2] = assay: Study K.241.5009: esophageal motility; format: in vivo, human; conditions: mean
Method: The effect of cilansetron on esophageal motility was evaluated in a randomized, double-blind, placebo-controlled, 3-way crossover study in 12 male healthy subjects (ITT population), aged 32-62 years. Subjects received placebo, cilansetron 4 mg, or cilansetron 8 mg administered orally TID for 7 days during each of the 3 periods, with a 7-day washout between periods. Before conduct of esophageal distension tests using an intraesophageal balloon, primary esophageal motility was induced by at least 5 wet swallows of 5 mL water and […] manometrically registered. Amplitude and duration of esophageal contractions were measured in 3 channels proximal and distal to the balloon and the velocity of propagation of contractions was […] measured over the 2 inter-channel intervals. […] For velocity of propagation, a slight trend towards […] reduced velocity with increasing cilansetron dose was found in the 7-2 cm interval but not in the 17-7 cm interval, and there was no effects seen on onset in either interval.

[3] = channel 2 cm, 4 mg TID oral 7 days
[4] = channel 2 cm, 8 mg TID oral 7 days
[5] = channel 7 cm, 4 mg TID oral 7 days
[6] = channel 7 cm, 8 mg TID oral 7 days
[7] = channel 17 cm, 4 mg TID oral 7 days
[8] = channel 17 cm, 8 mg TID oral 7 days
[9] = inter-channel interval 7-2 cm, 4 mg TID oral 7 days
[10] = inter-channel interval 7-2 cm, 8 mg TID oral 7 days
[11] = inter-channel interval 17-7 cm, 4 mg TID oral 7 days
[12] = inter-channel interval 17-7 cm, 8 mg TID oral 7 days

## Cc1nccn1C[C@H]1CCc2c(c3cccc4c3n2CCC4)C1=O [Cilansetron, (R)-(−)-4,5,6,8,9,10-hexahydro-10-[(2-methyl-1H-imidazol-1-yl)methyl]-11H-pyrido-[3,2,1-jk]-carbazol-11-one]
In vitro
  fraction unbound: 0.042
Healthy subjects [1]; 4 mg single IV dose
  Pressure first producing abdominal pain, Differences from Placebo: 0.67 mmHg
  Pressure first producing feeling of abdominal sensation, Differences from Placebo: −1.00 mmHg
  Pressure first producing feeling of need to defecate, Differences from Placebo: −0.67 mmHg
  Volume first producing abdominal pain, Differences from Placebo: 12.7 mL
  Volume first producing feeling of abdominal sensation, Differences from Placebo: -20.0 mL
  Volume first producing feeling of need to defecate, Differences from Placebo: -8.75 mL
  Pressure first producing abdominal pain: 31.0 mmHg
  Pressure first producing feeling of abdominal sensation: 12.7 mmHg
  Pressure first producing feeling of need to defecate: 20.3 mmHg
  Volume first producing abdominal pain: 310 mL
  Volume first producing feeling of abdominal sensation: 132 mL
  Volume first producing feeling of need to defecate: 233 mL
Healthy subjects [1]; 8 mg single IV dose
  Pressure first producing abdominal pain, Differences from Placebo: 2.00 mmHg
  Pressure first producing feeling of abdominal sensation, Differences from Placebo: −1.67 mmHg
  Pressure first producing feeling of need to defecate, Differences from Placebo: −0.67 mmHg
  Volume first producing abdominal pain, Differences from Placebo: -0.83 mL
  Volume first producing feeling of abdominal sensation, Differences from Placebo: -19.2 mL
  Volume first producing feeling of need to defecate, Differences from Placebo: -10.0 mL
  Pressure first producing abdominal pain: 32.3 mmHg
  Pressure first producing feeling of abdominal sensation: 12.0 mmHg
  Pressure first producing feeling of need to defecate: 20.3 mmHg
  Volume first producing abdominal pain: 297 mL
  Volume first producing feeling of abdominal sensation: 133 mL
  Volume first producing feeling of need to defecate: 232 mL
Healthy subjects [1]; 16 mg single IV dose
  Pressure first producing abdominal pain, Differences from Placebo: 1.33 mmHg
  Pressure first producing feeling of abdominal sensation, Differences from Placebo: −1.00 mmHg
  Pressure first producing feeling of need to defecate, Differences from Placebo: −1.00 mmHg
  Volume first producing abdominal pain, Differences from Placebo: 15.8 mL
  Volume first producing feeling of abdominal sensation, Differences from Placebo: -14.2 mL
  Volume first producing feeling of need to defecate, Differences from Placebo: -3.75 mL
  Pressure first producing abdominal pain: 31.7 mmHg
  Pressure first producing feeling of abdominal sensation: 12.7 mmHg
  Pressure first producing feeling of need to defecate: 20.0 mmHg
  Volume first producing abdominal pain: 313 mL
  Volume first producing feeling of abdominal sensation: 138 mL
  Volume first producing feeling of need to defecate: 238 mL
Healthy subjects [2]; [3]
  Contraction Force Amplitude, Absolute Values: 88.3 mmHg
  Contraction Force Amplitude, Change from Placebo: −4.2 mmHg
  Contraction Force Duration, Absolute Values: 4.5 s
  Contraction Force Duration, Change from Placebo: -0.0 s
Healthy subjects [2]; [4]
  Contraction Force Amplitude, Absolute Values: 85.5 mmHg
  Contraction Force Amplitude, Change from Placebo: −7.1 mmHg
  Contraction Force Duration, Absolute Values: 5.0 s
  Contraction Force Duration, Change from Placebo: 0.4 s
Healthy subjects [2]; [5]
  Contraction Force Amplitude, Absolute Values: 84.7 mmHg
  Contraction Force Amplitude, Change from Placebo: −3.6 mmHg
  Contraction Force Duration, Absolute Values: 3.7 s
  Contraction Force Duration, Change from Placebo: -0.5 s
Healthy subjects [2]; [6]
  Contraction Force Amplitude, Absolute Values: 85.4 mmHg
  Contraction Force Amplitude, Change from Placebo: −2.8 mmHg
  Contraction Force Duration, Absolute Values: 4.0 s
  Contraction Force Duration, Change from Placebo: -0.2 s
Healthy subjects [2]; [7]
  Contraction Force Amplitude, Absolute Values: 61.5 mmHg
  Contraction Force Amplitude, Change from Placebo: −5.3 mmHg
  Contraction Force Duration, Absolute Values: 3.0 s
  Contraction Force Duration, Change from Placebo: 0.1 s
Healthy subjects [2]; [8]
  Contraction Force Amplitude, Absolute Values: 59.3 mmHg
  Contraction Force Amplitude, Change from Placebo: −7.5 mmHg
  Contraction Force Duration, Absolute Values: 2.9 s
  Contraction Force Duration, Change from Placebo: -0.0 s
Healthy subjects [2]; [9]
  Velocity of Propagation, Onset, Absolute Values: 3.7 cm/sec
  Velocity of Propagation, Onset, Change from Placebo: 0.4 cm/sec
  Velocity of Propagation, Peak, Absolute Values: 3.6 cm/sec
  Velocity of Propagation, Peak, Change from Placebo: −0.2 cm/sec
Healthy subjects [2]; [10]
  Velocity of Propagation, Onset, Absolute Values: 3.5 cm/sec
  Velocity of Propagation, Onset, Change from Placebo: 0.2 cm/sec
  Velocity of Propagation, Peak, Absolute Values: 3.3 cm/sec
  Velocity of Propagation, Peak, Change from Placebo: −0.5 cm/sec
Healthy subjects [2]; [11]
  Velocity of Propagation, Onset, Absolute Values: 2.3 cm/sec
  Velocity of Propagation, Onset, Change from Placebo: 0.0 cm/sec
  Velocity of Propagation, Peak, Absolute Values: 2.8 cm/sec
  Velocity of Propagation, Peak, Change from Placebo: 0.1 cm/sec
Healthy subjects [2]; [12]
  Velocity of Propagation, Onset, Absolute Values: 2.3 cm/sec
  Velocity of Propagation, Onset, Change from Placebo: −0.0 cm/sec
  Velocity of Propagation, Peak, Absolute Values: 2.7 cm/sec
  Velocity of Propagation, Peak, Change from Placebo: 0.0 cm/sec
